# Data published in EP1200395B1, “UREA DERIVATIVES AS INHIBITORS OF CCR-3 RECEPTOR” (KIRIN BEER KABUSHIKI KAISHA, priority 1999, dated 2001).
# Target: T1, CCR-3 (Homo sapiens, UniProt P51677)
# T1 sequence (P51677 1-355): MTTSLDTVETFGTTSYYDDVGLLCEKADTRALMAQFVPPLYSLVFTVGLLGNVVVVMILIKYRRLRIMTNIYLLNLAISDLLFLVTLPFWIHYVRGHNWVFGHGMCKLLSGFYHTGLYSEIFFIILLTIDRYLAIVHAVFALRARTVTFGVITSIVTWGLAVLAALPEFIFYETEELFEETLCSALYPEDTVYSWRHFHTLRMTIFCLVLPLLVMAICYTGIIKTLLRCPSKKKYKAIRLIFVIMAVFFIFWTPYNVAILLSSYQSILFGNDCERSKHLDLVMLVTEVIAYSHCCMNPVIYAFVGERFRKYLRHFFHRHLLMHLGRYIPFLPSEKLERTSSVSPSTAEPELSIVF
# Experiment: Calcium mobilization assay (inhibition of eotaxin-induced intracellular calcium mobilization in CCR3/HEK293 cells)
# Assay type: cell-based
# Set-up: expressed in transfected cells
# Settings: 1.25 µg/ml test compound; eotaxin 10 nM; CCR3/HEK293 cells (Table 2b)
# Experimental: Compounds 93-162 used in this assay were synthesized by using the method described in Example 6.
# CCR-3 transfectant cells (CCR3/HEK293) were isolated and resuspended with assay buffer (20 mM HEPES, 125 mM NaCl, 5 mM KCl; 0.5 mM glucose, 1 mM CaCl2, 1 mM MgCl2, 0.1 % BSA). After washing CCR3/HEK293 cells with assay buffer, cells were loaded with Fura-2/AM in assay buffer for 1 hour at room temperature. Cells were washed and resuspended with assay buffer at 5 x 10^6 cells/ml in assay buffer, and placed in a tissue culture plate (Falcon, no. 3296). Test compounds dissolved in DMSO were added to the wells, followed by eotaxin (10 nM at final concentration). Cells were excited at 340 nm and 380 nm in a fluorimeter (ARGUS50, FDSS2000, Hamamatsu Photonics) and the relative ratio of the fluorescence emitted at 510 nm was recorded. For a control, DMSO without a test compound was added. Intracellular calcium mobilization was calculated as described in Krogel C. et al. , FEBS Let. (1989) 243 , 41-46.
row,SMILES,Ca^2+ mobilization 1.25 µg/ml (inhibition %) [%]
1,CC[N+](CCCNC(=O)Nc1ccc(Cl)c(Cl)c1)(CCOCCOC)CCc1ccc(Cl)cc1.[I-] (stereo not drawn) [compound 355],63
2,CC[N+](CCCNC(=O)Nc1ccc(Cl)c(Cl)c1)(CCOCCOC)CCc1ccc(Cl)cc1Cl.[I-] (stereo not drawn) [compound 357],57
3,CC[N+](CCCNC(=O)Nc1ccc(Cl)c(Cl)c1)(CCOCCOC)CCc1ccc(Cl)c(Cl)c1.[I-] (stereo not drawn) [compound 358],63
4,"CC[N+](CCCNC(=O)Nc1ccc(C#N)cc1)(CCOCCOC)CCc1cccc(Cl)c1.[I-] (stereo not drawn) [Compound 394, [3-(4-Cyanophenylureido)propyl][2-(3-chlorophenyl)ethyl][2-(2-methoxyehtoxy)ethyl] ethylammonium iodide]",76
5,C=C(C)C[N+](CC)(CCCNC(=O)Nc1ccc(C#N)cc1)CCc1ccc(Cl)cc1Cl.[I-] (stereo not drawn) [compound 400],68
6,C=C(C)C[N+](CC)(CCCNC(=O)Nc1ccc(Cl)c(Cl)c1)CCc1ccc(Cl)cc1.[I-] (stereo not drawn) [compound 364],66
7,"CC[N+](CCCNC(=O)Nc1ccc(OC)cc1)(CCOCCOC)CCc1cccc(Cl)c1.[I-] (stereo not drawn) [Compound 438, [3-(4-Methoxyphenylureido)propyl][2-(3-chlorophenyl)ethyl][2-(2-methoxyehtoxy)ethyl] ethylammonium iodide]",70
8,CC[N+](CCCNC(=O)Nc1ccc(OC)cc1)(CCc1ccc(Cl)c(Cl)c1)CC(N)=O.[I-] (stereo not drawn) [compound 437],64
9,CC[N+](CCCNC(=O)Nc1ccc(OC)cc1)(CCc1cccc(Cl)c1)CCC(C)C.[I-] (stereo not drawn) [compound 435],62
10,C=C(C)C[N+](CC)(CCCNC(=O)Nc1ccc(OC)cc1)CCc1ccc(Cl)c(Cl)c1.[I-] (stereo not drawn) [compound 447],65
11,C=C(C)C[N+](CC)(CCCNC(=O)Nc1ccc(Cl)c(Cl)c1)CCc1ccc(Cl)cc1Cl.[I-] (stereo not drawn) [compound 366],46
12,C=C(C)C[N+](CC)(CCCNC(=O)Nc1ccc(OC)cc1)CCc1ccc(Cl)cc1.[I-] (stereo not drawn) [compound 444],72

# The next lines start with the values.
row,Ca^2+ mobilization 1.25 µg/ml (inhibition %) [%],SMILES
1,70,CC[N+](CCCNC(=O)Nc1ccc(C#N)cc1)(CCc1ccc(Cl)cc1Cl)CC1CCC1.[I-] (stereo not drawn) [compound 398]
2,57,CC[N+](CCCNC(=O)Nc1ccc(Cl)c(Cl)c1)(CCOCCOC)CCc1cccc(Cl)c1.[I-] (stereo not drawn) [compound 356]
3,49,CC[N+](CCCNC(=O)Nc1ccc(Cl)c(Cl)c1)(CCc1ccc(Cl)cc1Cl)CC1CCC1.[I-] (stereo not drawn) [compound 362]
4,69,CC[N+](CCCNC(=O)Nc1ccc(OC)cc1)(CCc1ccc(Cl)c(Cl)c1)CC1CCC1.[I-] (stereo not drawn) [compound 443]

# Same assay, conditions: 6.25 µg/ml test compound; eotaxin 10 nM; CCR3/HEK293 cells (Table 2a)
row,SMILES,Ca^2+ mobilization 6.25 µg/ml (inhibition %) [%]
1,CSCCCN(CCCNC(=O)Nc1ccccc1-c1ccccc1)CCc1ccccc1 [Compound 105],53
2,COc1cc(CN(CCCNC(=O)Nc2ccc(Br)cc2)CCC(C)C)cc(OC)c1OC [Compound 131],52
3,O=C(O)CCCN(CCCNC(=O)Nc1cccc2ccccc12)Cc1ccc(C(F)(F)F)cc1 [Compound 161],51
4,COc1ccc(NC(=O)NCCCN(CCOCc2ccccc2)CCc2ccc(OC)c(OC)c2)cc1 [Compound 159],51
5,COc1ccc(NC(=O)NCCCN(CCCSC)C2CCCc3ccccc32)c(OC)c1 (stereo not drawn) [Compound 157],53
6,CCOC(=O)C1CC1CN(CCCNC(=O)Nc1cccc2ccccc12)CCc1ccccc1 (stereo not drawn) [Compound 162],50
7,COc1ccc(NC(=O)NCCCN(CCCSC)CCc2ccc(Cl)c(Cl)c2)c(OC)c1 [Compound 158],50
8,COc1cc(CN(CCCNC(=O)Nc2ccccc2-c2ccccc2)CCCSC)cc(OC)c1OC [Compound 103],53

# More lines, now with the values ahead:
row,Ca^2+ mobilization 6.25 µg/ml (inhibition %) [%],SMILES
1,52,CCOC(=O)C1CC1CN(CCCNC(=O)Nc1cccc(Cl)c1)Cc1cccs1 (stereo not drawn) [Compound 146]
2,64,Cc1cccc(NC(=O)NCCCN(CCc2ccc(Cl)c(Cl)c2)C[C@@H]2CCCN2)c1 [Compound 143]
3,59,CCOC(=O)C1CC1CN(CCCNC(=O)Nc1cccc(Cl)c1)CCc1ccc(C)cc1 (stereo not drawn) [Compound 153]
4,53,CSCCCN(CCCNC(=O)Nc1cccc(C)c1)CCc1ccc(C)cc1 [Compound 141]
5,70,O=C(NCCCN(C[C@@H]1CCCN1)C1CCCc2ccccc21)Nc1cccc(Cl)c1 (stereo partly drawn) [Compound 150]
6,55,O=C(NCCCN(CCc1ccc(Cl)c(Cl)c1)CC1CCCCC1)Nc1cccc(Cl)c1 [Compound 154]
7,54,Cc1ccc(CCN(CCCNC(=O)Nc2cccc(Cl)c2)CC(C)C)cc1 [Compound 151]
8,63,COC(=O)CCCN(CCCNC(=O)Nc1cccc(Cl)c1)CCc1ccc(Cl)c(Cl)c1 [Compound 156]
9,58,CSCCCN(CCCNC(=O)Nc1cccc(C)c1)CCc1ccc(Cl)c(Cl)c1 [Compound 142]
10,57,O=C(NCCCN(CCOCc1ccccc1)CCc1c[nH]cn1)Nc1cccc(Cl)c1 [Compound 148]
11,51,O=C(NCCCN(CCc1c[nH]cn1)CC1CCCCC1)Nc1cccc(Cl)c1 [Compound 147]
12,59,O=C(NCCCN(CCc1ccc(Cl)c(Cl)c1)C[C@@H]1CCCN1)Nc1ccc(Br)cc1 [Compound 134]
13,55,CC(C)CN(CCCNC(=O)Nc1ccc(Cl)c(C(F)(F)F)c1)CCc1ccccc1 [Compound 95]
14,65,COc1ccc(CCN(CCCNC(=O)Nc2cccc(C)c2)CCCSC)cc1OC [Compound 139]
15,51,O=C(NCCCN(CCc1ccccc1)Cc1ccco1)Nc1cccc(Cl)c1 [Compound 144]
16,53,CC(C)CCN(CCCNC(=O)Nc1cccc(Cl)c1)Cc1cccs1 [Compound 145]

# Target: T1, CCR-3
# Experiment: Eotaxin-induced chemotaxis of CCR-3 transfectant cells (CCR3/U937)
# Assay type: cell-based
# Set-up: expressed in transfected cells; host or cells: U937
# Settings: 10 µM test compound; eotaxin 1 x 10^-9 M; CCR3/U937 cells (Table 3a)
row,SMILES,Chemotaxis Assay 10 µM (inhibition %) [%]
1,CC(c1cccc2ccccc12)N(CCCNC(=O)Nc1ccc(Br)cc1)CCCC(=O)O (stereo not drawn) [Compound 268],100
2,COC(=O)CCCN(CCCNC(=O)Nc1ccccc1Br)C1CCCc2ccccc21 (stereo not drawn) [Compound 189],94
3,Cc1ccc(C(C)N(CCCNC(=O)Nc2ccc(Br)cc2)CCCC(=O)O)cc1 (stereo not drawn) [Compound 226],100

# The next lines start with the values.
row,Chemotaxis Assay 10 µM (inhibition %) [%],SMILES
1,89,CC(=O)OCCCN(CCCNC(=O)Nc1ccc(Br)cc1)C1CCCc2ccccc21 (stereo not drawn) [Compound 215]
2,100,CC(C)CN(CCCNC(=O)Nc1ccccc1)CCc1ccc(Cl)cc1 [Compound 239]
3,95,O=C(O)CCCN(CCCNC(=O)Nc1ccc2ccccc2c1)C1CCCc2ccccc21 (stereo not drawn) [Compound 265]
4,65,O=C(O)CCCN(CCCNC(=O)Nc1ccccc1)CCc1ccc(Cl)cc1 [Compound 80]
5,62,CC(=O)c1cccc(NC(=O)NCCCN(CCCC(=O)O)C2CCCc3ccccc32)c1 (stereo not drawn) [Compound 262]

# Same assay, conditions: 10 µM test compound; eotaxin 1 x 10^-9 M; CCR3/U937 cells (Table 3c)
row,Chemotaxis Assay 10 µM (inhibition %) [%],SMILES
1,100,CC[N+](CCCNC(=O)Nc1ccccc1)(CCc1ccc(Cl)cc1)Cc1cccc([N+](=O)[O-])c1.[I-] (stereo not drawn) [compound 338]

# Same assay, conditions: U-937; 10 µM test compound; eotaxin 1 x 10^-9 M; CCR3/U937 cells (Table 3a)
row,inhibition at 10 µM [%],SMILES
1,25,CCOC(=O)c1ccc(CN(CCCNC(=O)Nc2ccccc2)CCc2ccc(Cl)cc2)o1 [Compound 22]

# Same assay, conditions: U-937; 10 µM test compound; eotaxin 1 x 10^-9 M; CCR3/U937 cells (Table 3c)
row,inhibition at 10 µM [%],SMILES
1,100,"CC[N+](CCCNC(=O)Nc1ccccc1)(CCc1ccc(Cl)cc1)Cc1cc(F)ccc1F (stereo not drawn) [Compound 351, [3-(Phenylureido)propyl][2-(4-chlorophenyl)ethyl](2,5-difluorobenzyl)ethylammonium iodide]"

# Same assay, conditions: test compound 0.1 µg/ml; eotaxin 1 x 10^-9 M; CCR3/U937 transfectants; 37 °C, 1 hour
row,Chemotaxis Assay 0.1 µg/ml (inhibition %) [%],SMILES
1,98,CC[N+](CCF)(CCCNC(=O)Nc1ccc(Br)cc1)CCc1cccc(Cl)c1.[I-] (stereo not drawn) [compound 382]
2,80,CCC(CC)C[N+](CC)(CCCNC(=O)Nc1ccc(Br)cc1)CCc1cccc(Cl)c1.[I-] (stereo not drawn) [compound 379]
3,76,CC[N+](CCF)(CCCNC(=O)Nc1ccc(Br)cc1)CCc1ccc(Cl)c(Cl)c1.[I-] (stereo not drawn) [compound 384]
